Measured values taken from patent US7682785B2, “Method for predicting effectiveness of chemotherapy using anticancer agent” (Sysmex Corporation, priority 2005, dated 2010).
Several values for one entry are separate records, joined by “and”; a condition that tells them apart may be missing. Equal values may be shown once.

Assays:
[1] = system: human-derived breast cancer cultured cells (cell E); test: Effect of anticancer agent therapy for cancerous mice (change in tumor size), cell E heterograft; type: in vivo; details: cell E implanted subcutaneously in mice; 20 mg/kg once a day for 5 days; tumor size to the 11th day
Experimental: (§1) 5 kinds of human-derived breast cancer cultured cells (cells A to E) were subcutaneously implanted on the backs of forty-six mice (No. 1 to 46). The mice were raised for 21 to 28 days to engraft the breast cancer cells. […] Upon lapse of 24 hours after the administration, tissues (about 50 mg) in the size of 2.5 mm×2.5 mm was cut from the back of each mouse. Each of the tissues were homogenized using an electric homogenizer to dissolve dissolvable components in a buffer solution containing 0.1 w/v % nonidet P-40 (NP-40) (Calbiochem), 50 mM tris-HCl (pH: 7.4), 5 mM EDTA, 50 mM sodium fluoride, 1 mM sodium orothovanadate, and 100 μl/ml of protease inhibitor cocktail (Sigma, St. Louis, Mo.).
(§2) The tumor size was measured from the start of the administration to the 11th day after the start of the administration. The chemotherapeutic effectiveness was classified, according to the change in tumor size, into Type I (high chemosensitivity), Type II (medium chemosensitivity), Type III (slightly low chemosensitivity), and Type IV (low chemosensitivity). […] The classification results are shown in the column of “Effect of therapy” in Table 1.

[2] = system: human-derived breast cancer cultured cells (cell B); test: Effect of anticancer agent therapy for cancerous mice (change in tumor size), cell B heterograft; type: in vivo; details: cell B implanted subcutaneously in mice; 20 mg/kg once a day for 5 days; tumor size to the 11th day
Experimental: as §1, §2

[3] = system: human-derived breast cancer cultured cells (cell A); test: Effect of anticancer agent therapy for cancerous mice (change in tumor size), cell A heterograft; type: in vivo; details: cell A implanted subcutaneously in mice; 20 mg/kg once a day for 5 days; tumor size to the 11th day
Experimental: as §1, §2

CDK1 = CDK1 specific activity in tumor tissue lysate of mouse heterograft after paclitaxel administration; type: in vivo, human; details: 24 hours after 20 mg/kg single administration, one value per mouse
Experimental: A tissue specimen containing target tumor cells was prepared in a 1.5 ml-Eppendorf tube so that 100 μg lysate in terms of total protein mass was dissolved in a buffer solution of 500 μl. To the buffer solution, added were sepharose beads (Bio-Rad, Calif., U.S.A.) coated with 20 μl of a protein A and 2 μg of antibodies specific to the CDK whose activity was to be measured, i.e. polyclonal anti-CDK1-antibodies or polyclonal anti-CDK2-antibodies (Santa Cruz Biotechnology, Santa Cruz, Calif.). After the addition, the solution was reacted at 4° C. for 1 hour. Thereafter, the beads were washed with a buffer solution (0.1% NP-40 and 50 mM tris-HCl adjusted pH 7.0) three times, followed by re-suspension in a kinase buffer of 15 μl. Thus, a sample containing the beads to which the target CDK binds was yielded.
(§3) In the sample, all the CDK (hereinafter, if distinction is not necessary, simply called as “CDKs”) including CDK itself, activated CDK to which cycline binds, complexes of activated CDK and CDK inhibitor, and complexes of CDK and CDK inhibitor were bound to the antibodies, thereby fixing the CDKs to the beads. The activity of the CDKs in the sample was measured by the following measurement method.
(§4) Prepared was a substrate solution containing 5 mM adenosine 5′-O-([…]) (ATP-γS (Sigma)), a buffer solution (20 mM tris-HCl (pH: 7.4), 0.1% Triton-X-100), and 10 μg histon H1 (Upstate Biotechnology, Lake Placid, N.Y.) as a substrate for CDK1 and CDK2. The substrate solution was added to the aforementioned sample solution containing the CDKs up to the total volume of 50 μl. The resulting sample solution was shaken for 10 minutes at 37° C. for incubation. As shown by the following formula, serine or threonine residue in the substrate was phosphorylated by the activated CDK, and monothiophosphorylated substrate was yielded.
(§5) After the reaction, the sample solution was centrifuged at 20,000 rpm for 20 seconds to precipitate the beads, and 18 μl of a supernatant in which monothiophosphates were dissolved was obtained. To 18 μl of the supernatant, added was 15 μl of a buffer solution (150 mM tris-HCl (pH: 9.2) and 5 mM EDTA). Further, the resultant solution was incubated in 10 mM iodoacetyl biotin solution (100 mM tris-HCl (pH: 7.5) and 1 mM EDTA) in a dark place for 90 minutes at room temperature. Thereby, sulfur ions in the thiophosphates in the monothiophosphorylated substrate were labeled by biotinylation. The reaction of the iodoacetyl biotin with the thiophosphates was stopped by adding […].
0.4 μg of the biotinylated thiophosphorylated substrate was blotted on a PVDF membrane by using a slot blotter for adsorption. The blotted membrane was blocked with 1% of bovine serum albumin (BSA) for 30 minutes, followed by reaction with avidin-FITC (Vector, Burlingame, Calif.) at 37° C. for 1 hour. […] After the washing, the image on the membrane was analyzed by a fluorescent image analyzer (Bio-Rad, Calif. U.S.A.). The activity of the CDKs was calculated based on a standard curve.
The standard curve was created by adsorbing a protein (biotinylated immunoglobulin) of a known amount to a PVDF membrane, labeling the protein with FITC in the same manner as mentioned above, and measuring the fluorescent intensity of the protein by the fluorescent image analyzer (Bio-Rad). 1 U of the CDK activity to be measured is a value representing the fluorescent intensity substantially equivalent to the fluorescent amount of the target protein of 1 ng. […]

[4] = system: human-derived breast cancer cultured cells (cell D); test: Effect of anticancer agent therapy for cancerous mice (change in tumor size), cell D heterograft; type: in vivo; details: cell D implanted subcutaneously in mice; 20 mg/kg once a day for 5 days; tumor size to the 11th day
Experimental: as §1, §2

p21 = test: Expression level of p21 (WAF1 ELISA) in tumor tissue lysate of mouse heterograft after paclitaxel administration; type: in vivo, human; parameters: unit not given here; details: 24 hours after 20 mg/kg single administration, one value per mouse
Experimental: Expression level of p21 is measured using CALIBIOCHEM p21 WAF 1 ELISA kit (EMD Bioscience Inc.).
WAF1 sample solutions (mixture solutions of specimen and WAF1 standard solution containing lyophilized WAF1) were prepared by diluting the WAF1 standard solution (20 unit/ml lyophilized WAF1) stepwise with the cell lysate as the specimen. In each of the sample solutions, the cell lysate was diluted 4-times or more.
Into 96-well plastic plate in which rabbit polyclonal antibodies (primary antibody) specific to WAF1 was coated, 100 μl each of the WAF1 sample solution and the WAF1 standard solution were individually seeded into the wells. The well plate was sealed and incubated at room temperature for 2 hours for reaction with the primary antibody.
After the well plate was washed with a cleaning buffer, which was prepared by adding 25 ml of a 20-times concentrated solution to 475 ml de-ionized water, three times, 100 μl of antibodies (biotinylated anti-WAF1 monoclonal antibodies) for detection of […] were added to each well. Thereafter, the well plate was sealed and allowed to react at room temperature for 1 hour.
After the reaction, the well plate was washed with the cleaning buffer three times, and then, 100 μl of a peroxidase-conjugated streptavidine diluent was added into each well, and the mixture was stirred moderately. Thereafter, the well plate was sealed and allowed to react at room temperature for 30 minutes. After reaction, unbound peroxidase-conjugated streptavidine was removed by washing with the cleaning buffer three times. And then, 100 μl of a substrate solution (pigment source substrate) was added into each well, and the mixture was reacted at room temperature for 30 minutes. Upon lapse of 30 minutes after the addition, 100 μl of a stop solution (2.5 N sulfuric acid) was poured into each well to stop the reaction. Then, absorbance of each well's contents was measured using a plate reader at dual wavelength of 450/540 nm.
The concentration of p21WAF1 in the WAF1 sample solutions was calculated based on a standard curve of the WAF1 standard solution.
as §1
After removing insoluble components by centrifuging at 15,000 rpm for 5 minutes at 4 ° C., the obtained supernatants (cell lysates) were used as specimens.
Activity and expression level of CDK1 and CDK2 respectively were measured with respect to the specimens obtained in the experiment (1) in accordance with the aforementioned measurement method, and the specific activity of CDK1 and the specific activity of CDK2 in the specimens were calcurated. Also, the expression level of p21 in the specimens was measured in accordance with the aforementioned measurement method.

[5] = system: human-derived breast cancer cultured cells (cell C); test: Effect of anticancer agent therapy for cancerous mice (change in tumor size), cell C heterograft; type: in vivo; details: cell C implanted subcutaneously in mice; 20 mg/kg once a day for 5 days; tumor size to the 11th day
Experimental: as §1, §2

CDK2 = CDK2 specific activity in tumor tissue lysate of mouse heterograft after paclitaxel administration; type: in vivo, human; details: 24 hours after 20 mg/kg single administration, one value per mouse
Experimental: A tissue specimen containing target tumor cells was prepared in a 1.5 ml-Eppendorf tube so that 100 μg lysate in terms of total protein mass was dissolved in a buffer solution of 500 μl. […] After the addition, the solution was reacted at 4° C. for 1 hour. Thereafter, the beads were washed with a buffer solution (0.1% NP-40 and 50 mM tris-HCl adjusted pH 7.0) three times, followed by re-suspension in a kinase buffer of 15 μl. Thus, a sample containing the beads to which the target CDK binds was yielded.
as §3, §4, §5
0.4 μg of the biotinylated thiophosphorylated substrate was blotted on a PVDF membrane by using a slot blotter for adsorption. The blotted membrane was blocked with 1% of bovine serum albumin (BSA) for 30 minutes, followed by reaction with avidin-FITC (Vector, Burlingame, Calif.) at 37° C. for 1 hour. Thereafter, the membrane was washed with 50 mM TBS (25 mM tris-HCl (pH: 7.4) and 150 mM NaCl) for 10 minutes three times. After the washing, the image on the membrane was analyzed by a fluorescent image analyzer (Bio-Rad, Calif. U.S.A.). The activity of the CDKs was calculated based on a standard curve.
The standard curve was created by adsorbing a protein (biotinylated immunoglobulin) of a known amount to a PVDF membrane, labeling the protein with FITC in the same manner as mentioned above, and measuring the fluorescent intensity of the protein by the fluorescent image analyzer (Bio-Rad). 1 U of the CDK activity to be measured is a value representing the fluorescent intensity substantially equivalent to the fluorescent amount of the target protein of 1 ng.
An initialized PVDF membrane (Millipore, Billerica, Mass.) obtained by immersing the membrane in TBS (25 mM tris-HCl (pH: 7.4) and 150 mM NaCl) was set to a well plate for slot blotter. […]

CC(=O)O[C@H]1C(=O)[C@@]2(C)[C@H]([C@H](OC(=O)c3ccccc3)[C@]3(O)C[C@H](OC(=O)[C@H](O)[C@@H](NC(=O)c4ccccc4)c4ccccc4)C(C)=C1C3(C)C)[C@]1(OC(C)=O)CO[C@@H]1C[C@@H]2O [paclitaxel]
Therapy using anticancer agent: Effect of therapy [1]: Type IV
Therapy using anticancer agent: Effect of therapy [2]: Type II
Therapy using anticancer agent: Effect of therapy [3]: Type I
Specifc activity of CDK1 (CDK1; cell A tumor tissue): 11.79 mU/ng and 10.83 mU/ng and 17.50 mU/ng and 21.77 mU/ng and 16.12 mU/ng and 16.82 mU/ng and 13.55 mU/ng
Specifc activity of CDK1 (CDK1; cell B tumor tissue): 27.00 mU/ng and 31.56 mU/ng and 20.53 mU/ng and 13.39 mU/ng and 33.32 mU/ng and 32.01 mU/ng and 34.33 mU/ng and 34.21 mU/ng and 35.27 mU/ng and 25.40 mU/ng and 13.90 mU/ng
Specifc activity of CDK1 (CDK1; cell C tumor tissue): 25.48 mU/ng and 11.25 mU/ng and 22.64 mU/ng and 39.14 mU/ng and 21.35 mU/ng and 11.22 mU/ng and 13.77 mU/ng and 7.06 mU/ng and 16.60 mU/ng and 11.60 mU/ng and 15.29 mU/ng and 12.58 mU/ng and 41.80 mU/ng and 60.36 mU/ng and 36.09 mU/ng and 30.85 mU/ng
Specifc activity of CDK1 (CDK1; cell D tumor tissue): 10.75 mU/ng and 0.00 mU/ng and 7.10 mU/ng and 6.48 mU/ng and 22.16 mU/ng and 9.68 mU/ng and 10.04 mU/ng
Specifc activity of CDK1 (CDK1; cell E tumor tissue): 9.81 mU/ng and 2.45 mU/ng and 8.76 mU/ng and 7.92 mU/ng and 8.29 mU/ng
Therapy using anticancer agent: Effect of therapy [4]: Type III
Expression level of p21 (p21; cell A tumor tissue): 1.43 and 1.34 and 1.93 and 1.28 and 0.00 and 0.86 and 1.26
Expression level of p21 (p21; cell B tumor tissue): 4.09 and 4.61 and 5.18 and 5.25 and 5.41 and 5.57 and 5.33 and 5.00 and 3.42 and 4.33 and 5.43
Expression level of p21 (p21; cell C tumor tissue): 1.06 and 1.44 and 0.00 (7×) and 1.31 and 0.85 and 0.77 and 0.64 and 0.57 and 0.53 and 0.29
Expression level of p21 (p21; cell D tumor tissue): 8.76 and 7.21 and 7.62 and 7.34 and 6.39 and 5.40 and 0.74
Expression level of p21 (p21; cell E tumor tissue): 34.45 and 10.96 and 15.33 and 17.25 and 15.25
Therapy using anticancer agent: Effect of therapy [5]: Type II
Specific activity of CDK2 (CDK2; cell A tumor tissue): 734.6 mU/ng and 634.1 mU/ng and 1083.2 mU/ng and 766.4 mU/ng and 407.1 mU/ng and 574.5 mU/ng and 545.0 mU/ng
Specific activity of CDK2 (CDK2; cell B tumor tissue): 156.2 mU/ng and 192.8 mU/ng and 109.1 mU/ng and 328.6 mU/ng and 64.8 mU/ng and 130.5 mU/ng and 171.6 mU/ng and 140.3 mU/ng and 157.9 mU/ng and 92.1 mU/ng and 41.9 mU/ng
Specific activity of CDK2 (CDK2; cell C tumor tissue): 163.6 mU/ng and 213.3 mU/ng and 209.9 mU/ng and 341.2 mU/ng and 106.9 mU/ng and 206.6 mU/ng and 140.6 mU/ng and 98.6 mU/ng and 114.8 mU/ng and 201.8 mU/ng and 129.9 mU/ng and 151.0 mU/ng and 138.8 mU/ng and 187.9 mU/ng and 124.6 mU/ng and 136.6 mU/ng
Specific activity of CDK2 (CDK2; cell D tumor tissue): 0.0 mU/ng (4×) and 80.1 mU/ng and 23.6 mU/ng
Specific activity of CDK2 (CDK2; cell E tumor tissue): 55.7 mU/ng and 50.2 mU/ng and 59.1 mU/ng and 0.0 mU/ng and 56.4 mU/ng
